Assay results reported in ChEMBL document CHEMBL1201862, “PubChem BioAssay data set” (2004).
Active and inactive are the calls of the source.

Experiments:
Paired box protein Pax-8 = Paired box protein Pax-8 (Homo sapiens, UniProt Q06710); test: PAX8 transcriptional activity inhibition in RMG-I – RMG-I cells, luciferase, cherry-pick, dose response (AID 687027); format: functional, cell-based;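 also: luciferase reporter driven by Pax8 target thyroperoxidase promoter measured by SteadyGlo luminescence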
[1] = toxicity toward immortalized ovarian surface epithelium – cell-based, plate reader, dry powder samples, cytotoxicity control for PAX8 inhibitor project, dose response (AID 743045); format: functional
[2] = reduced cellular PGC1a acetyl-lysine signal – cell-based, cherry-picked samples, dose response (AID 720514); format: functional;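 also: potency may reflect raised or lowered acetylation signal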
[3] = OVCAR-3 cell viability loss – plate reader, dry powder samples, PAX8 inhibitor project, dose response (AID 743044); format: functional, cell-based
[4] = general cell-killing toxicity readout – plate reader, dry powder samples, cytotoxicity control for PAX8 inhibitor project, dose response (AID 743021); format: functional, cell-based
[5] = OVCAR8 cell viability loss – plate reader, dry powder samples, PAX8 project, dose response (AID 743197); format: functional, cell-based; details: OVCAR-8
[6] = viability loss in A549 lung cells – cell-based, 24 h, CellTiter-Glo luminescence, cherry-picks, cytotoxicity control, dose response (AID 1053115); format: functional; details: A549, 24 h
[7] = CMV-driven luciferase expression suppression in HEK293 – cell-based, luminescence, dry powder, counter-screen for Pax8 inhibitor project, dose response (AID 743020); format: functional
[8] = A2780 cell killing – plate reader, dry powder samples, cytotoxicity control, dose response (AID 743046); format: functional, cell-based
[9] = target: Fructose-bisphosphate aldolase (Mycobacterium tuberculosis, UniProt P9WQA3); test: Fluorescence-based biochemical high throughput dose response assay for inhibitors of the fructose-bisphosphate aldolase (FBA) of M. tuberculosis.; format: functional
[10] = inhibitors of non-replicating M. tuberculosis, dose response, luciferase, dry powder (AID 651619); format: functional; details: Mycobacterium tuberculosis
[11] = HepG2 hepatoma cell viability loss – plate reader, dry powder, cytotoxicity control, dose response (AID 651947); format: functional, cell-based
[12] = inhibitors of non-replicating M. tuberculosis, dose response, luciferase, dry powder (AID 651620); format: functional; details: Mycobacterium tuberculosis
[13] = target: Potassium channel subfamily K member 9 (Homo sapiens, UniProt Q9NPC2); test: KCNK9 flux blockade, concentration-response – cell-based, FluxOR thallium flux, selectivity assay for TASK1 inhibitor project, SAR follow-up (AID 652211); format: functional;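 also: potency is for inhibitors of the channel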
[14] = target: Potassium channel subfamily K member 3 (Homo sapiens, UniProt O14649); test: inhibition of human KCNK3 channel flux – CHO cells, FluxOR thallium flux, SAR follow-up (AID 652212); format: functional
NS3 = NS3 (Hepatitis C virus, UniProt A3EZJ3); test: NS3h DNA-binding inhibition IC50 – biochemical, fluorescence polarization, ChemBridge library, dose response (AID 743264)
[15] = tested on: Streptococcus sp. 'group A'; test: Streptococcus pyogenes SK(-)GAS viability under kanamycin – luminescence, BacTiterGlo, confirmation, counter-screen for streptokinase expression inhibitor project, dose response (AID 1900); format: functional, organism-based
[16] = Trypanosoma cruzi growth suppression in host cells – NIH3T3 host cells, beta-gal luminescence, confirmation (AID 2044); format: functional, cell-based;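 also: intracellular parasites grown in NIH/3T3 mouse fibroblasts as host cells; luminescent beta-galactosidase reporter signal from transgenic T. cruzi replicating inside host cells; inhibitors lower the luminescence signal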
[17] = NIH3T3 cell viability loss – ATP luminescence, mouse fibroblasts, counter-screen, dose response (AID 2010); format: functional, cell-based;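 also: cells exposed to compound for about 90 hours before reading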
Streptococcus = test: GAS UMAA2166 growth inhibition – luminescence, BacTiterGlo, counter-screen for streptokinase expression inhibitor project, dose response (AID 1915); format: functional, organism-based;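 also: potency for reduction of bacterial viability or growth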
[18] = viability loss in HepG2 hepatoma cells – cell-based, ATP luminescence, cherry-pick, activator set 2, cytotoxicity control, dose response (AID 1053143); format: functional
[19] = viability loss in HepG2 hepatoma cells – cell-based, cherry-picks, set 5, cytotoxicity control, dose response (AID 1053118); format: functional
[20] = viability loss in HEK293 kidney cells – cell-based, cherry-picks, set 5, cytotoxicity control, dose response (AID 1053117); format: functional
[21] = target: COUP transcription factor 2 (Homo sapiens, UniProt P24468); test: Luminescence-based cell-based high throughput dose response assay to identify inhibitors of COUP-TFII (NR2F2).; format: functional;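 also: HEK293 cells transiently cotransfected with COUP-TFII expression vector and reporter; luciferase reporter luminescence driven by COUP-TFII from the pX2-168 reporter plasmid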
[22] = Late stage assay provider results from the probe development effort to identify inhibitors of the Plasmodium falciparum M18 Aspartyl Aminopeptidase (M18AAP): radiolabel-based cell-based dose response assay to identify compounds that inhibit P. falciparum growth in RBCs, Set 2..; format: functional
[23] = target: Luciferin 4-monooxygenase (Photinus pyralis, UniProt P08659); test: Counter Screen for Luciferase-based Assay Positives. [Related pubchem assays: 620, 618, 411 ]
HT-1080 = test: HT1080 cell viability loss – fluorescence readout (AID 620); format: functional, cell-based; details: Homo sapiens
cells = format: functional, cell-based
[24] = target: T1, Nuclear receptor subfamily 0 group B member 1 (Homo sapiens, UniProt P51843); format: functional, cell-based;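 also: HEK293T cells transfected with SF-1 and DAX-1 plus StAR promoter luciferase reporter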
T1 sequence (P51843 whole entry): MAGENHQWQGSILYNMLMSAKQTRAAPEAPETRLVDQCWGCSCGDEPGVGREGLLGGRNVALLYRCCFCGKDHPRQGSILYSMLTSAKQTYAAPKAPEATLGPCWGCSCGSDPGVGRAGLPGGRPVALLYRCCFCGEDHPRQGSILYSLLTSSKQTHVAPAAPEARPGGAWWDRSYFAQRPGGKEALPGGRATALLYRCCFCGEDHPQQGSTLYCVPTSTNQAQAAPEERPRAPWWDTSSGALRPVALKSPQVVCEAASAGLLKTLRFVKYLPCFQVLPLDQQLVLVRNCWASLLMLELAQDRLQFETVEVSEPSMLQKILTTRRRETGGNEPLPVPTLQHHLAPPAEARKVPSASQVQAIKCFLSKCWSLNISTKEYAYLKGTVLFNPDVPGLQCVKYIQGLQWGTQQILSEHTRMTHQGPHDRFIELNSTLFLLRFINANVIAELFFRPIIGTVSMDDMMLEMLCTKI

[25] = A549 cell cytotoxicity, dose response, cytotoxicity control, plate reader, cherry-pick, antagonist series (AID 743412); format: functional, cell-based
[26] = toxicity toward HepG2 liver cells – cell-based, plate reader, cherry-pick, antagonist series, cytotoxicity control, dose response (AID 743416); format: functional
[27] = blockers of bursicon-stimulated LGR2 cAMP reporter – cell-based, HEK293, CRE-luciferase reporter, cherry pick, set 2, dose response (AID 743343); format: functional;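 also: transfected cells were stimulated with diluted bursicon conditioned medium after compound addition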
[28] = blockade of melanocortin 4 receptor signaling – cell-based, plate reader, cherry pick, counter-screen for LGR2 antagonist project, dose response (AID 743444); format: functional;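 also: transfected HEK 293 cells stimulated with alpha-MSH peptide; potency of inhibitors of the alpha-MSH evoked signal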
[29] = Luminescence Cell-Based Dose Response to Identify Activators of 5'UTR Stem-Loop Driven Prion Protein mRNA Translation in H4-C Neuroglioblastoma Cells. [Related pubchem assays: 1829 (Project Summary), 1814 (Primary HTS)]; format: functional
[30] = Luminescence Cell-Based Dose Response HTS to Identify Activators of Luciferase Translation or Activity in H4 […] Cells. [Related pubchem assays: 1829 (Project Summary), 1814 (Primary HTS)]; format: functional
[31] = Luminescence Cell-Based Dose Response to Identify Activators of Luciferase Translation or Activity in H4-C Neuroglioblastoma Cells. [Related pubchem assays: 1829 (Project Summary), 1814 (Primary HTS)]; format: functional
[32] = Luminescence Cell-Based Dose Confirmation to Identify Activators of 5'UTR Stem-Loop Driven Alpha-Synuclein mRNA Translation in H4 Neuroglioblastoma Cells. [Related pubchem assays: 1829 (Project Summary), 1814 (Primary HTS)]; format: functional
[33] = viability loss in HEK293T cells – cell-based, CellTiter-Glo luminescence, dry powder, set 6, cytotoxicity control, dose response (AID 651949); format: functional; details: HEK293
[34] = growth inhibition of replicating M. tuberculosis, dose response, counter-screen, dry powder, IC90 (AID 651617); format: functional; details: Mycobacterium tuberculosis
Cytochrome P450 2C9 = Cytochrome P450 2C9 (Homo sapiens, UniProt P11712)
HeLa = test: viability loss in HeLa cells – cell-based, ATP luminescence, cherry-pick samples, cytotoxicity control, dose response (AID 687004); format: functional; details: Homo sapiens
[35] = target: Kappa-type opioid receptor (Homo sapiens, UniProt P41145); test: kappa opioid receptor antagonism potency – cell-based, fluorescence, dose response, late-stage follow-up (AID 652032); format: functional
[36] = cytotoxicity in MITF-independent A375 cells – cell-based, CellTiter-Glo luminescence, dry powder, set 4, counter-screen for MITF inhibitor project, dose response (AID 624364); format: functional; details: A-375;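 also: A375 melanoma cells are MITF independent so this is a counter screen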
[37] = viability loss in MITF-independent A375 cells – cell-based, CellTiter-Glo luminescence, dry powder, set 2, counter-screen for MITF inhibitor project, dose response (AID 624489); format: functional; details: A-375;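 also: actives are compounds lowering A375 viability meaning general cytotoxicity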
[38] = general mammalian cell viability loss – inhibitor set, cherry-pick, set 2, cytotoxicity control for miR-122 modulator project, dose response (AID 720697); format: functional, cell-based

Sequence of Paired box protein Pax-8 (Q06710 whole entry): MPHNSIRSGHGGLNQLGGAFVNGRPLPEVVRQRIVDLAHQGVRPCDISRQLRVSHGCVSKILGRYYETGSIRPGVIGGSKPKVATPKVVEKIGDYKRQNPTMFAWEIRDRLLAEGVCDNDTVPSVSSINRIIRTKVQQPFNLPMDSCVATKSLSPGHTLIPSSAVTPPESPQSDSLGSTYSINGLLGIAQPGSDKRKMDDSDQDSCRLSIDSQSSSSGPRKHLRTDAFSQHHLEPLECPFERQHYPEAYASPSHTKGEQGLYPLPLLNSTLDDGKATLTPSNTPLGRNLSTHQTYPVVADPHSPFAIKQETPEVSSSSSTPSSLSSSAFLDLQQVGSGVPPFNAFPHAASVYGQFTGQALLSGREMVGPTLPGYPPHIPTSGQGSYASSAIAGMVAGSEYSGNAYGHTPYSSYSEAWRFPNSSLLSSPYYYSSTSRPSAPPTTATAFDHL
Sequence of Potassium channel subfamily K member 9 (Q9NPC2 whole entry): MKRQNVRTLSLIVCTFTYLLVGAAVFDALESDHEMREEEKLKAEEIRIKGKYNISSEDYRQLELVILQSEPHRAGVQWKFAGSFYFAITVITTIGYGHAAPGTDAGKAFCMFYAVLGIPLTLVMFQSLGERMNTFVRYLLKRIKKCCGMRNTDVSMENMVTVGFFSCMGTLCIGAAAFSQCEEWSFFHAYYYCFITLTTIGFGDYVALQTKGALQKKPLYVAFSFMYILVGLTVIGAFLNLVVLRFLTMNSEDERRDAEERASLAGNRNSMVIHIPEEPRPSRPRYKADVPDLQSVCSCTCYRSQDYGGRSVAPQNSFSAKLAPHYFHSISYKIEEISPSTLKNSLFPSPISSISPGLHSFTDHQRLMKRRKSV
Sequence of Luciferin 4-monooxygenase (P08659 whole entry): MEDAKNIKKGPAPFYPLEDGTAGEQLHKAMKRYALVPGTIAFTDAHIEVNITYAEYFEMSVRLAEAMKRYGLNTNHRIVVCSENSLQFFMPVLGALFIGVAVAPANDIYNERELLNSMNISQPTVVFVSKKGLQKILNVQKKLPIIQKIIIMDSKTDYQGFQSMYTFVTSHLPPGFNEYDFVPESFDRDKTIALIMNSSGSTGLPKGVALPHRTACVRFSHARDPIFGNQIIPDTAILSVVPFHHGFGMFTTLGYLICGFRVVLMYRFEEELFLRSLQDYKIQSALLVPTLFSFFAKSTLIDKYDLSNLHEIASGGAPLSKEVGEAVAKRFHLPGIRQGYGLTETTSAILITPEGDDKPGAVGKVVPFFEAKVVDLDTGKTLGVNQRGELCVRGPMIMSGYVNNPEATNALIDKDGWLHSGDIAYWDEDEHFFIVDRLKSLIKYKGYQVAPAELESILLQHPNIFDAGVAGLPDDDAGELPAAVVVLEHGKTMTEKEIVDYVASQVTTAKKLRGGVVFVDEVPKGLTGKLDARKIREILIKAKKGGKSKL
Sequence of Kappa-type opioid receptor (P41145 whole entry): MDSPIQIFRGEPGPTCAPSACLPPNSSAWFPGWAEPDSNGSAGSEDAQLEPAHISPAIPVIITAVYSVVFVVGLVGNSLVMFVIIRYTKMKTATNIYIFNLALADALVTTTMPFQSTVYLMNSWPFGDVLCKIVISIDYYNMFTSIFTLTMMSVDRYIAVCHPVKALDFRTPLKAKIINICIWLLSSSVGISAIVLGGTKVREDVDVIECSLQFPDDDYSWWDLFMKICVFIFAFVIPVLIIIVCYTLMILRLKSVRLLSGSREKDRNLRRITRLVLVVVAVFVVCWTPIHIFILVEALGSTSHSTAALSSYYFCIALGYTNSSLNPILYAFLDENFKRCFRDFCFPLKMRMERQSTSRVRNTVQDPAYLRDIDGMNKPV
Sequence of NS3 (A3EZJ3 whole entry): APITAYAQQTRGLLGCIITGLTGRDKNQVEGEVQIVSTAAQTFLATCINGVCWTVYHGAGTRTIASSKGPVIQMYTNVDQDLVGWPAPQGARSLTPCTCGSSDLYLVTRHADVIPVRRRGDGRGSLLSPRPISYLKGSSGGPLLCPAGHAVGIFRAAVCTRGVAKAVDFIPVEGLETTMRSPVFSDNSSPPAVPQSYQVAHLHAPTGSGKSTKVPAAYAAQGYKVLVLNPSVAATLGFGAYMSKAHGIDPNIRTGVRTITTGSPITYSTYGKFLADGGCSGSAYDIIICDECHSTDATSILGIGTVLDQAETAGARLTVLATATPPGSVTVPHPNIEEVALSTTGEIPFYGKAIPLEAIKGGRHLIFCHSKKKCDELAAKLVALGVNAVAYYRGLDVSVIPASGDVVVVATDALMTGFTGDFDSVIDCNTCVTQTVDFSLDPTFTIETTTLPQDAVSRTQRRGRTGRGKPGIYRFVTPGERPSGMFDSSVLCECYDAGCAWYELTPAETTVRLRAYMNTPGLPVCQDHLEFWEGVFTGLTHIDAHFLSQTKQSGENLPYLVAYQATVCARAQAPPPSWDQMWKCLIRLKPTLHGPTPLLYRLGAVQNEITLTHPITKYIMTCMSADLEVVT
Sequence of Potassium channel subfamily K member 3 (O14649 whole entry): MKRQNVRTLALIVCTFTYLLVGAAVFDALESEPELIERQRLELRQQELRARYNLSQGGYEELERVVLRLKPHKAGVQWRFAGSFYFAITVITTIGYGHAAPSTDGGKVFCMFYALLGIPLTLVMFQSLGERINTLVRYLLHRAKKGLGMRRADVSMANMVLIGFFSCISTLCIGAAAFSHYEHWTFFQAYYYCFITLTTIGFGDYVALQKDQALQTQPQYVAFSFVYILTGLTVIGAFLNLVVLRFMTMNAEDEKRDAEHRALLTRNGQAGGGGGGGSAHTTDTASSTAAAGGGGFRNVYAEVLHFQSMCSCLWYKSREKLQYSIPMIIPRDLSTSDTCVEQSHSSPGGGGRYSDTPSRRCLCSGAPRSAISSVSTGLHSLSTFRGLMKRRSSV
Sequence of Fructose-bisphosphate aldolase (P9WQA3 whole entry): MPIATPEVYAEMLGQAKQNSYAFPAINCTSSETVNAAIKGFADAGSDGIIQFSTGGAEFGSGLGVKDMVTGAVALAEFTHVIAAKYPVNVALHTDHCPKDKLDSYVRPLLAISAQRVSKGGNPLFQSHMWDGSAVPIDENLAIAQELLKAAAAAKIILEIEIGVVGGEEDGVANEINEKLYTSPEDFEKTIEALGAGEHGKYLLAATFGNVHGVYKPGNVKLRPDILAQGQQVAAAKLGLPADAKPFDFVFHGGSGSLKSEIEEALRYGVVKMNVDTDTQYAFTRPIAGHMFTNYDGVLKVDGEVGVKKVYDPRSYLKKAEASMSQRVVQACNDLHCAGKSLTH
Sequence of Cytochrome P450 2C9 (P11712 whole entry): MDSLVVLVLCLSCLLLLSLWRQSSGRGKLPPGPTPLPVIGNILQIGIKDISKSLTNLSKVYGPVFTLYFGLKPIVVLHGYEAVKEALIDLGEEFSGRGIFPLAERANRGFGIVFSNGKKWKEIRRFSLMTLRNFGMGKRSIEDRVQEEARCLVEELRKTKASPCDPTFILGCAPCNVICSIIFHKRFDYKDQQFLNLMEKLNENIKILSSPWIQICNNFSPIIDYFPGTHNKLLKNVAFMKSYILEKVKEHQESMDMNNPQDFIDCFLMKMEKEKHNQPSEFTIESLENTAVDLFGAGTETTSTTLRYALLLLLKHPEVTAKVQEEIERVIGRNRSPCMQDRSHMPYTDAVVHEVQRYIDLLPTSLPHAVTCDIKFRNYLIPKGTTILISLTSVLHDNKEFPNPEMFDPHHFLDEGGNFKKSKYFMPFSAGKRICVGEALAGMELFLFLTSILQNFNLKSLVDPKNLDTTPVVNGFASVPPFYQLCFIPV
Sequence of COUP transcription factor 2 (P24468 whole entry): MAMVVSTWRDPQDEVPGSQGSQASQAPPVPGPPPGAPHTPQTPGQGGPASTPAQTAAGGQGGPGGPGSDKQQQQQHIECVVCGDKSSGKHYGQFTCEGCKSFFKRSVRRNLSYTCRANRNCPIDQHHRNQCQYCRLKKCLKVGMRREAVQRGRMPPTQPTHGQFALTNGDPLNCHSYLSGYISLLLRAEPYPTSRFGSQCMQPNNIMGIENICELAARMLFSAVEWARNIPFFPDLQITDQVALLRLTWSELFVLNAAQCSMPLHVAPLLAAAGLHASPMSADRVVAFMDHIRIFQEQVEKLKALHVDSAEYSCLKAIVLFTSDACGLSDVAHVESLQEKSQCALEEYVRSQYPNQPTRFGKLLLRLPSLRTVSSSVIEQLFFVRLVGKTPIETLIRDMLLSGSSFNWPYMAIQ

In the case of `Fc1cccc(CN2C[C@@H]3N[C@H](C2)[C@@H]3c2ccc(-c3cccc(F)c3)cc2)c1`, the AC50 (Paired box protein Pax-8) is reported as 23.4 µM (active), the AC50 [1] is reported as 27.6 µM (active) and the AC50 [2] is reported as 4.43 µM (active). For the same molecule, the AC50 [3] was 22.1 µM (active), the AC50 [4] was 19.5 µM (active) and the AC50 [5] was 27 µM (active).

With `C[C@@H]1CCCCO[C@@H](CN(C)S(=O)(=O)c2ccc(Cl)cc2)[C@@H](C)CN([C@@H](C)CO)C(=O)c2cc(NC(=O)Nc3ccc(F)cc3)ccc2O1` the AC50 [6] was 51.4 µM (active).

In the case of `COc1ccc(S(=O)(=O)Nc2ccc3c(c2)CC(=O)N([C@H](C)CO)C[C@H](C)[C@@H](CN(C)Cc2ccc(C(F)(F)F)cc2)O3)cc1`, the AC50 (Paired box protein Pax-8) is reported as 19.3 µM (active), the AC50 [7] is reported as 49.3 µM (active) and the AC50 [5] is reported as > 70 µM (inactive).

With `Cc1ccc(S(=O)(=O)Nc2ccc3c(c2)C(=O)N([C@H](C)CO)C[C@@H](C)[C@H](CN(C)S(=O)(=O)c2ccccc2)OCCCC[C@H](C)O3)cc1` the AC50 (Paired box protein Pax-8) was 8.05 µM (active), the AC50 [8] was 29.5 µM (active) and the AC50 [5] was > 70 µM (inactive).

For `CCCc1cc(=O)oc2cc(OCc3ccc(C(=O)O)o3)ccc12`, the IC50 [9] was 2.44 µM (active).

For `Fc1ccc(Cn2cc(CSc3nnc(-c4ccc(F)cc4)o3)nn2)cc1`, the IC90 [10] was 1 µM (active), the AC50 [11] was 30.8 µM (active) and the IC90 [12] was 1 µM (active).

In the case of `O=C(Nc1ccccc1Cl)c1cccc(NC(=O)C2CCCC2)c1`, the IC50 [13] is reported as 5.78 µM (active) and the IC50 [14] is reported as 0.202 µM (active).

With `Cc1c(C(=O)O)cccc1-n1c(C)ccc1C` the IC50 (NS3) was 34.5 µM (inactive).

With `CCOc1ccc2c(c1)C(=NNC(=O)c1ccncc1)c1cc(OCC)ccc1-2` the EC50 [15] was 0.894 µM (active), the EC50 [16] was 0.825 µM (active) and the EC50 [17] was > 60 µM (inconclusive). The EC50 (Streptococcus) was 3.66 µM (active) and the AC50 [18] was 26 µM (active).

For `CO[C@@H]1CN(C)C(=O)c2cc(NC(=O)Nc3cc(Cl)cc(Cl)c3)ccc2OC[C@@H](C)NC[C@@H]1C`, the AC50 [19] was 23.8 µM (active) and the AC50 [20] was 36.7 µM (active).

In the case of `Cc1c(C(=O)C2=C(O)C(=O)N(CCN3CCOCC3)C2c2ccco2)cnn1-c1ccccc1` (stereo unspecified), the IC50 [21] is reported as 21.1 µM (inactive).

With `Oc1ccc(CCNC(c2ccccc2)c2ccccc2)cc1O` the IC50 [22] was 17 µM (inactive).

In the case of `COc1ccc(C(=O)Nc2nnc(-c3ccco3)s2)cc1`, the EC50 [23] is reported as > 100 µM (not active), the EC50 (HT-1080) is reported as > 50 µM (not active) and the IC50 (cells) is reported as > 67.5 µM (inactive). The IC50 [24] was > 67.5 µM (inactive), the AC50 [25] was > 52 µM (inactive) and the AC50 [26] was > 52 µM (inactive). The AC50 [27] was 3.75 µM (active) and the AC50 [28] was 3.67 µM (active).

For `c1ccc(-c2nnc(SCCC3OCCCO3)o2)cc1`, the EC50 [29] was 1.55 µM (active), the EC50 [30] was 0.936 µM (active) and the EC50 [31] was 0.852 µM (active). The EC50 [32] was 0.604 µM (active), the IC90 [10] was 8 µM (active) and the AC50 [33] was > 52 µM (inactive). For the same molecule, the IC90 [12] was 8 µM (active), the IC90 [34] was 62 µM (active) and the AC50 (Cytochrome P450 2C9) was “inconclusive”.

With `COc1ccc(C2=Nc3ccccc3NC(=O)C2N(C(=O)c2cc3ccccc3[nH]2)c2ccccc2)cc1` (stereo unspecified) the AC50 (HeLa) was > 52 µM (inactive).

For `COC(=O)c1cc(Br)cnc1N1CCC(N)CC1`, the IC50 [35] was 21.8 µM (inactive).

In the case of `COc1ccc(C(=O)NC2=C(c3ccc(OC)cc3)C(=O)c3ccccc3C2=O)cc1`, the AC50 [36] is reported as 20.1 µM (active) and the AC50 [37] is reported as 13.3 µM (active).

For `Cc1ccc(-c2ccc3c(c2)O[C@H](CN(C)C(=O)CC2CC2)[C@H](C)CN([C@@H](C)CO)S3(=O)=O)cc1`, the AC50 [38] was 10.4 µM (active).
